# Reference: US20230085307A1, “PYRIDAZINONE COMPOUND AND HERBICIDE” (NISSAN CHEMICAL CORPORATION, priority 2019, published 2023)
# What was measured:
# Chinese sprangletop = assay: Test Example 3: herbicidal effect by foliage application, Wagner pot (Table 18, symbol D); type: in vivo, chinese sprangletop (Leptochloa chinensis); conditions: amount of applied herbicide 320 g/ha
# Summary of the method: (§1)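 Plants were sown in alluvial soil held under 0.1–0.5 cm standing water and grown 14 days in a greenhouse at 25–30 °C. An emulsifiable formulation, water-diluted to the set dose, was then sprayed onto the foliage, and effects were scored three weeks later using previously defined criteria.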
# barnyard grass [1] = assay: Test Example 4: herbicidal effect by soil treatment (Table 19, symbol H); type: in vivo, barnyard grass (Echinochloa crus-galli); conditions: amount of applied herbicide 320 g/ha
# Summary of the method: (§2)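 Step 1: sow seeds in sterilized diluvial soil, cover ~1.5 cm. Step 2: spray diluted emulsion onto soil surface at predetermined rate. Step 3: greenhouse, 25–30° C, three weeks. Step 4: grade effect on each plant by earlier criteria.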
# redroot pigweed [2] = assay: Test Example 5: herbicidal effect by foliage application, plastic box (Table 20, symbol N); type: in vivo, redroot pigweed (Amaranthus retroflexus); conditions: foliage application, 320 g/ha
# Summary of the method: (§3)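 Foliar spray test: emulsion formulation diluted in water to a set application rate, sprayed onto 14-day-old plants raised in diluvial soil at 25° C to 30° C under glass. Both herbicidal effect and crop effect rated visually three weeks later.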
# southern crabgrass [3] = assay: Test Example 4: herbicidal effect by soil treatment (Table 19, symbol F); type: in vivo, southern crabgrass (Digitaria ciliaris); conditions: amount of applied herbicide 320 g/ha
# Summary of the method: as §2
# green foxtail [4] = assay: Test Example 5: herbicidal effect by foliage application, plastic box (Table 20, symbol G); type: in vivo, green foxtail (Setaria viridis); conditions: foliage application, 320 g/ha
# Summary of the method: as §3
# velvetleaf [5] = assay: Test Example 5: herbicidal effect by foliage application, plastic box (Table 20, symbol M); type: in vivo, velvetleaf (Abutilon theophrasti); conditions: foliage application, 320 g/ha
# Summary of the method: as §3
# chickweed [6] = assay: Test Example 5: herbicidal effect by foliage application, plastic box (Table 20, symbol P); type: in vivo, common chickweed (Stellaria media); conditions: foliage application, 320 g/ha
# Summary of the method: as §3
# blackgrass [7] = assay: Test Example 5: herbicidal effect by foliage application, plastic box (Table 20, symbol J); type: in vivo, blackgrass (Alopecurus myosuroides); conditions: foliage application, 320 g/ha
# Summary of the method: as §3
# lambsquarters [8] = assay: Test Example 5: herbicidal effect by foliage application, plastic box (Table 20, symbol O); type: in vivo, lambsquarters (Chenopodium album); conditions: foliage application, 320 g/ha
# Summary of the method: as §3
# chickweed [9] = assay: Test Example 4: herbicidal effect by soil treatment (Table 19, symbol P); type: in vivo, common chickweed (Stellaria media); conditions: amount of applied herbicide 320 g/ha
# Summary of the method: as §2
# lambsquarters [10] = assay: Test Example 4: herbicidal effect by soil treatment (Table 19, symbol O); type: in vivo, lambsquarters (Chenopodium album); conditions: amount of applied herbicide 320 g/ha
# Summary of the method: as §2
# oval-leafed pondweed = assay: Test Example 1: herbicidal activity, application before weed generation under submerged conditions (Table 16, symbol C); type: in vivo, oval-leafed pondweed (Monochoria vaginalis)
# Summary of the method: (§4)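 Alluvial soil was flooded to 4 cm depth, weed seeds were sown mixed and 2.5-leaf rice seedlings were transplanted. On sowing day, the compound's emulsion, diluted in water to a set dose, was applied to the water surface. Plants grew at 25–30 °C and were scored 0–5 after three weeks.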
# persian speedwell [11] = assay: Test Example 4: herbicidal effect by soil treatment (Table 19, symbol R); type: in vivo, Persian speedwell (Veronica persica); conditions: amount of applied herbicide 320 g/ha
# Summary of the method: as §2
# rice flat sedge = assay: Test Example 3: herbicidal effect by foliage application, Wagner pot (Table 18, symbol E); type: in vivo, rice flat sedge (Cyperus iria); conditions: amount of applied herbicide 320 g/ha
# Summary of the method: as §1
# Japanese bulrush = assay: Test Example 1: herbicidal activity, application before weed generation under submerged conditions (Table 16, symbol B); type: in vivo, Japanese bulrush (Schoenoplectus juncoides)
# Summary of the method: as §4
# barnyard grass [12] = assay: Test Example 5: herbicidal effect by foliage application, plastic box (Table 20, symbol H); type: in vivo, barnyard grass (Echinochloa crus-galli); conditions: foliage application, 320 g/ha
# Summary of the method: as §3
# Italian ryegrass [13] = assay: Test Example 5: herbicidal effect by foliage application, plastic box (Table 20, symbol K); type: in vivo, Italian ryegrass (Lolium multiflorum); conditions: foliage application, 320 g/ha
# Summary of the method: as §3
# green foxtail [14] = assay: Test Example 4: herbicidal effect by soil treatment (Table 19, symbol G); type: in vivo, green foxtail (Setaria viridis); conditions: amount of applied herbicide 320 g/ha
# Summary of the method: as §2
# redroot pigweed [15] = assay: Test Example 4: herbicidal effect by soil treatment (Table 19, symbol N); type: in vivo, redroot pigweed (Amaranthus retroflexus); conditions: amount of applied herbicide 320 g/ha
# Summary of the method: as §2
# barnyard grass [16] = assay: Test Example 3: herbicidal effect by foliage application, Wagner pot (Table 18, symbol H); type: in vivo, barnyard grass (Echinochloa crus-galli); conditions: amount of applied herbicide 320 g/ha
# Summary of the method: as §1
# southern crabgrass [17] = assay: Test Example 5: herbicidal effect by foliage application, plastic box (Table 20, symbol F); type: in vivo, southern crabgrass (Digitaria ciliaris); conditions: foliage application, 320 g/ha
# Summary of the method: as §3
# blackgrass [18] = assay: Test Example 4: herbicidal effect by soil treatment (Table 19, symbol J); type: in vivo, blackgrass (Alopecurus myosuroides); conditions: amount of applied herbicide 320 g/ha
# Summary of the method: as §2
# late watergrass = assay: Test Example 1: herbicidal activity, application before weed generation under submerged conditions (Table 16, symbol A); type: in vivo, late watergrass (Echinochloa oryzicola)
# Summary of the method: as §4
# velvetleaf [19] = assay: Test Example 4: herbicidal effect by soil treatment (Table 19, symbol M); type: in vivo, velvetleaf (Abutilon theophrasti); conditions: amount of applied herbicide 320 g/ha
# Summary of the method: as §2
# windgrass = assay: Test Example 4: herbicidal effect by soil treatment (Table 19, symbol L); type: in vivo, windgrass (Apera spica-venti); conditions: amount of applied herbicide 320 g/ha
# Summary of the method: as §2
# Italian ryegrass [20] = assay: Test Example 4: herbicidal effect by soil treatment (Table 19, symbol K); type: in vivo, Italian ryegrass (Lolium multiflorum); conditions: amount of applied herbicide 320 g/ha
# Summary of the method: as §2
# wild oat [21] = assay: Test Example 5: herbicidal effect by foliage application, plastic box (Table 20, symbol I); type: in vivo, wild oat (Avena fatua); conditions: foliage application, 320 g/ha
# Summary of the method: as §3
# persian speedwell [22] = assay: Test Example 5: herbicidal effect by foliage application, plastic box (Table 20, symbol R); type: in vivo, Persian speedwell (Veronica persica); conditions: foliage application, 320 g/ha
# Summary of the method: as §3
# wild oat [23] = assay: Test Example 4: herbicidal effect by soil treatment (Table 19, symbol I); type: in vivo, wild oat (Avena fatua); conditions: amount of applied herbicide 320 g/ha
# Summary of the method: as §2
# [24] = amount of applied herbicide 320 g/ha
# [25] = evaluated three weeks after application
compound,measurement,setting,value
COCCn1nc(C)c(O)c(-c2c(-c3ccc(F)cc3)sc3ccc(F)cc23)c1=O [2-429],herbicidal effect on D: Chinese sprangletop,Chinese sprangletop,0 (Herbicidal rate of 5% or less (almost no effect))
same,"herbicidal effect, H: barnyard grass",barnyard grass [1],0 (Herbicidal rate of 5% or less (almost no effect))
same,"N: redroot pigweed, herbicidal effect grade",redroot pigweed [2]; three weeks after application,3 (Herbicidal rate of 40% or more and less than 70%)
same,"herbicidal effect, F: southern crabgrass",southern crabgrass [3],0 (Herbicidal rate of 5% or less (almost no effect))
same,"G: green foxtail, herbicidal effect grade",green foxtail [4]; three weeks after application,0 (Herbicidal rate of 5% or less (almost no effect))
same,"M: velvetleaf, herbicidal effect grade",velvetleaf [5]; three weeks after application,2 (Herbicidal rate of 20% or more and less than 40%)
same,"P: chickweed, herbicidal effect grade",chickweed [6]; three weeks after application,5 (Herbicidal rate of 90% or more (almost completely withered))
same,"J: blackgrass, herbicidal effect grade",blackgrass [7]; three weeks after application,0 (Herbicidal rate of 5% or less (almost no effect))
same,"O: lambsquarters, herbicidal effect grade",lambsquarters [8]; three weeks after application,0 (Herbicidal rate of 5% or less (almost no effect))
same,"herbicidal effect, P: chickweed",chickweed [9],0 (Herbicidal rate of 5% or less (almost no effect))
same,"herbicidal effect, O: lambsquarters",lambsquarters [10],0 (Herbicidal rate of 5% or less (almost no effect))
same,"Herbicidal effect, C: oval-leafed pondweed",oval-leafed pondweed; [24],3 (Herbicidal rate of 40% or more and less than 70%)
same,"herbicidal effect, R: persian speedwell",persian speedwell [11],0 (Herbicidal rate of 5% or less (almost no effect))
same,herbicidal effect on E: rice flat sedge,rice flat sedge,0 (Herbicidal rate of 5% or less (almost no effect))
same,"Herbicidal effect, B: Japanese bulrush",Japanese bulrush; [24],2 (Herbicidal rate of 20% or more and less than 40%)
same,"H: barnyard grass, herbicidal effect grade",barnyard grass [12]; three weeks after application,0 (Herbicidal rate of 5% or less (almost no effect))
same,"K: Italian ryegrass, herbicidal effect grade",Italian ryegrass [13]; three weeks after application,0 (Herbicidal rate of 5% or less (almost no effect))
same,"herbicidal effect, G: green foxtail",green foxtail [14],0 (Herbicidal rate of 5% or less (almost no effect))
same,"herbicidal effect, N: redroot pigweed",redroot pigweed [15],3 (Herbicidal rate of 40% or more and less than 70%)
same,herbicidal effect on H: barnyard grass,barnyard grass [16],3 (Herbicidal rate of 40% or more and less than 70%)
same,"F: southern crabgrass, herbicidal effect grade",southern crabgrass [17]; three weeks after application,2 (Herbicidal rate of 20% or more and less than 40%)
same,"herbicidal effect, J: blackgrass",blackgrass [18],0 (Herbicidal rate of 5% or less (almost no effect))
same,"Herbicidal effect, A: late watergrass",late watergrass; [24],3 (Herbicidal rate of 40% or more and less than 70%)
same,"herbicidal effect, M: velvetleaf",velvetleaf [19],1 (Herbicidal rate of 5% or more and less than 20%)
same,"herbicidal effect, L: windgrass",windgrass,0 (Herbicidal rate of 5% or less (almost no effect))
same,"herbicidal effect, K: Italian ryegrass",Italian ryegrass [20],0 (Herbicidal rate of 5% or less (almost no effect))
same,"I: wild oat, herbicidal effect grade",wild oat [21]; three weeks after application,0 (Herbicidal rate of 5% or less (almost no effect))
same,"R: persian speedwell, herbicidal effect grade",persian speedwell [22]; three weeks after application,4 (Herbicidal rate of 70% or more and less than 90%)
same,"herbicidal effect, I: wild oat",wild oat [23],0 (Herbicidal rate of 5% or less (almost no effect))
Cc1nn(C)c(=O)c(-c2c(-c3ccc(C(C)(C)C)cc3)sc3ccc(F)cc23)c1O [2-208],herbicidal effect on D: Chinese sprangletop,Chinese sprangletop,5 (Herbicidal rate of 90% or more (almost completely withered))
same,"H: barnyard grass, herbicidal effect rating",barnyard grass [1],0 (Herbicidal rate of 5% or less (almost no effect))
same,herbicidal effect on N: redroot pigweed (criteria 0-5),redroot pigweed [2]; [25],3 (Herbicidal rate of 40% or more and less than 70%)
same,"F: southern crabgrass, herbicidal effect rating",southern crabgrass [3],3 (Herbicidal rate of 40% or more and less than 70%)
same,herbicidal effect on G: green foxtail (criteria 0-5),green foxtail [4]; [25],2 (Herbicidal rate of 20% or more and less than 40%)
same,herbicidal effect on M: velvetleaf (criteria 0-5),velvetleaf [5]; [25],2 (Herbicidal rate of 20% or more and less than 40%)
same,herbicidal effect on P: chickweed (criteria 0-5),chickweed [6]; [25],5 (Herbicidal rate of 90% or more (almost completely withered))
same,herbicidal effect on J: blackgrass (criteria 0-5),blackgrass [7]; [25],0 (Herbicidal rate of 5% or less (almost no effect))
same,herbicidal effect on O: lambsquarters (criteria 0-5),lambsquarters [8]; [25],0 (Herbicidal rate of 5% or less (almost no effect))
same,"P: chickweed, herbicidal effect rating",chickweed [9],0 (Herbicidal rate of 5% or less (almost no effect))
same,"O: lambsquarters, herbicidal effect rating",lambsquarters [10],2 (Herbicidal rate of 20% or more and less than 40%)
same,Herbicidal effect on C: oval-leafed pondweed (grade 0-5),oval-leafed pondweed; 320 g/ha applied herbicide,0 (Herbicidal rate of 5% or less (almost no effect))
same,"R: persian speedwell, herbicidal effect rating",persian speedwell [11],0 (Herbicidal rate of 5% or less (almost no effect))
same,herbicidal effect on E: rice flat sedge,rice flat sedge,5 (Herbicidal rate of 90% or more (almost completely withered))
same,Herbicidal effect on B: Japanese bulrush (grade 0-5),Japanese bulrush; 320 g/ha applied herbicide,2 (Herbicidal rate of 20% or more and less than 40%)
same,herbicidal effect on H: barnyard grass (criteria 0-5),barnyard grass [12]; [25],5 (Herbicidal rate of 90% or more (almost completely withered))
same,herbicidal effect on K: Italian ryegrass (criteria 0-5),Italian ryegrass [13]; [25],0 (Herbicidal rate of 5% or less (almost no effect))
same,"G: green foxtail, herbicidal effect rating",green foxtail [14],0 (Herbicidal rate of 5% or less (almost no effect))
same,"N: redroot pigweed, herbicidal effect rating",redroot pigweed [15],0 (Herbicidal rate of 5% or less (almost no effect))
same,herbicidal effect on H: barnyard grass,barnyard grass [16],5 (Herbicidal rate of 90% or more (almost completely withered))
same,herbicidal effect on F: southern crabgrass (criteria 0-5),southern crabgrass [17]; [25],3 (Herbicidal rate of 40% or more and less than 70%)
same,"J: blackgrass, herbicidal effect rating",blackgrass [18],0 (Herbicidal rate of 5% or less (almost no effect))
same,Herbicidal effect on A: late watergrass (grade 0-5),late watergrass; 320 g/ha applied herbicide,0 (Herbicidal rate of 5% or less (almost no effect))
same,"M: velvetleaf, herbicidal effect rating",velvetleaf [19],1 (Herbicidal rate of 5% or more and less than 20%)
same,"L: windgrass, herbicidal effect rating",windgrass,0 (Herbicidal rate of 5% or less (almost no effect))
same,"K: Italian ryegrass, herbicidal effect rating",Italian ryegrass [20],0 (Herbicidal rate of 5% or less (almost no effect))
same,herbicidal effect on I: wild oat (criteria 0-5),wild oat [21]; [25],0 (Herbicidal rate of 5% or less (almost no effect))
same,herbicidal effect on R: persian speedwell (criteria 0-5),persian speedwell [22]; [25],5 (Herbicidal rate of 90% or more (almost completely withered))
same,"I: wild oat, herbicidal effect rating",wild oat [23],0 (Herbicidal rate of 5% or less (almost no effect))
